Results taken from patent publication US10597388B2, “Pyridazinone herbicides” (FMC CORPORATION, priority 2014, dated 2020).

Assays:
Assay in all cases: Test E greenhouse herbicide test, pre- and postemergence
Assay type in all cases: in vivo
[1] = system: momingglory (Ipomoea coccinea); conditions: Preemergence
Outline: (§1)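 Visual ratings, 0 for no effect up to 100 for complete control, were taken relative to controls 14 to 21 d after greenhouse treatment. Applications used a surfactant-containing non-phytotoxic solvent formulation, sprayed either preemergence on silt loam-sown seed or postemergence on 1- to 4-leaf plants 2-18 cm tall in peat-based potting medium.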

[2] = system: surinam grass (Brachiaria decumbens); conditions: Preemergence
Outline: as §1

[3] = system: nutsedge, yellow (yellow nutsedge, Cyperus esculentus); conditions: Preemergence
Outline: as §1

[4] = system: panicum, fall (fall panicum, Panicum dichotomiflorum)
Outline: as §1

[5] = system: corn (Zea mays)
Outline: as §1

[6] = system: johnsongrass (Sorghum halepense); conditions: Preemergence
Outline: as §1

[7] = system: arrowleaf sida (Sida rhombifolia)
Outline: as §1

[8] = system: nightshade (eastern black nightshade, Solanum ptycanthum); conditions: Preemergence
Outline: as §1

[9] = system: velvetleaf (Abutilon theophrasti); conditions: Preemergence
Outline: as §1

[10] = system: foxtail, green (green foxtail, Setaria viridis); conditions: Preemergence
Outline: as §1

[11] = system: field bindweed (Convolvulus arvensis)
Outline: as §1

[12] = system: foxtail, giant (giant foxtail, Setaria faberii); conditions: Preemergence
Outline: as §1

[13] = system: waterhemp (common waterhemp, Amaranthus rudis)
Outline: as §1

[14] = system: lambsquarters (Chenopodium album); conditions: Preemergence
Outline: as §1

[15] = 62 g ai/ha, scale 0 to 100 (0 no effect, 100 complete control)
[16] = 125 g ai/ha, scale 0 to 100 (0 no effect, 100 complete control)
[17] = 16 g ai/ha, scale 0 to 100, 0 no effect, 100 complete control
[18] = 31 g ai/ha, scale 0 to 100, 0 no effect, 100 complete control
[19] = 62 g ai/ha, Postemergence, scale 0 to 100 (0 no effect, 100 complete control)
[20] = 62 g ai/ha, Preemergence, scale 0 to 100 (0 no effect, 100 complete control)
[21] = 125 g ai/ha, Postemergence, scale 0 to 100 (0 no effect, 100 complete control)
[22] = 125 g ai/ha, Preemergence, scale 0 to 100 (0 no effect, 100 complete control)
[23] = Postemergence, 16 g ai/ha, visual, scale 0 no effect to 100 complete control
[24] = Postemergence, 31 g ai/ha, visual, scale 0 no effect to 100 complete control
[25] = Preemergence, 16 g ai/ha, scale 0 to 100, 0 no effect, 100 complete control
[26] = Preemergence, 31 g ai/ha, scale 0 to 100, 0 no effect, 100 complete control
[27] = 250 g ai/ha, visual, scale 0 no effect to 100 complete control
[28] = 250 g ai/ha, Postemergence, scale 0 to 100 (0 no effect, 100 complete control)
[29] = Preemergence, 250 g ai/ha, visual, scale 0 no effect to 100 complete control

Cc1ccc2sc(C)c(-c3c(OC(=O)OC(C)C)c(C)nn(C)c3=O)c2c1 [Compound 66]
10: Plant response rating, Panicum, Fall [4, 25] | Plant response rating, Corn [5, 19]
50: Plant response rating, Surinam Grass [2, 16] | Plant response rating, Nutsedge, Yellow [3, 16] | Plant response rating, Field Bindweed [11, 20]
60: Plant response rating, Panicum, Fall [4, 26] | Plant response rating, Arrowleaf Sida [7, 19] | Plant response rating, Field Bindweed [11, 24]
5: Plant response rating, Surinam Grass [2, 15] | Plant response rating, Surinam Grass [2, 17] | Plant response rating, Nutsedge, Yellow [3, 18] | Plant response rating, Field Bindweed [11, 26] | Plant response rating, Foxtail, Giant [12, 18] | Plant response rating, Lambsquarters [14, 17]
100: Plant response rating, Nightshade [8, 16] | Plant response rating, Lambsquarters [14, 15] | Plant response rating, Lambsquarters [14, 16]
75: Plant response rating, Waterhemp [13, 19]
80: Plant response rating, Panicum, Fall [4, 21] | Plant response rating, Velvetleaf [9, 16] | Plant response rating, Field Bindweed [11, 19] | Plant response rating, Field Bindweed [11, 21] | Plant response rating, Waterhemp [13, 20] | Plant response rating, Waterhemp [13, 21]
0: Plant response rating, Morningglory [1, 17] | Plant response rating, Morningglory [1, 18] | Plant response rating, Nutsedge, Yellow [3, 17] | Plant response rating, Corn [5, 20] | Plant response rating, Corn [5, 23] | Plant response rating, Corn [5, 24] | Plant response rating, Corn [5, 25] | Plant response rating, Corn [5, 26] | Plant response rating, Johnsongrass [6, 15] | Plant response rating, Johnsongrass [6, 16] | Plant response rating, Johnsongrass [6, 17] | Plant response rating, Johnsongrass [6, 18] | Plant response rating, Arrowleaf Sida [7, 25] | Plant response rating, Arrowleaf Sida [7, 26] | Plant response rating, Nightshade [8, 17] | Plant response rating, Nightshade [8, 18] | Plant response rating, Velvetleaf [9, 17] | Plant response rating, Velvetleaf [9, 18] | Plant response rating, Foxtail, Green [10, 17] | Plant response rating, Foxtail, Green [10, 18] | Plant response rating, Field Bindweed [11, 25] | Plant response rating, Foxtail, Giant [12, 17] | Plant response rating, Waterhemp [13, 25]
90: Plant response rating, Foxtail, Giant [12, 16] | Plant response rating, Waterhemp [13, 22] | Plant response rating, Lambsquarters [14, 18]
30: Plant response rating, Morningglory [1, 15] | Plant response rating, Panicum, Fall [4, 23] | Plant response rating, Arrowleaf Sida [7, 23]
65: Plant response rating, Nutsedge, Yellow [3, 15] | Plant response rating, Arrowleaf Sida [7, 22] | Plant response rating, Waterhemp [13, 24] | Plant response rating, Waterhemp [13, 26]
98: Plant response rating, Panicum, Fall [4, 22]
15: Plant response rating, Corn [5, 21] | Plant response rating, Nightshade [8, 15]
70: Plant response rating, Panicum, Fall [4, 19] | Plant response rating, Panicum, Fall [4, 24] | Plant response rating, Arrowleaf Sida [7, 21] | Plant response rating, Foxtail, Green [10, 16] | Plant response rating, Field Bindweed [11, 23] | Plant response rating, Waterhemp [13, 23]
40: Plant response rating, Morningglory [1, 16] | Plant response rating, Arrowleaf Sida [7, 20] | Plant response rating, Arrowleaf Sida [7, 24] | Plant response rating, Field Bindweed [11, 22] | Plant response rating, Foxtail, Giant [12, 15]
35: Plant response rating, Foxtail, Green [10, 15]
95: Plant response rating, Panicum, Fall [4, 20]
20: Plant response rating, Surinam Grass [2, 18] | Plant response rating, Corn [5, 22] | Plant response rating, Velvetleaf [9, 15]

Cc1nn(C)c(=O)c(-c2ccc(Br)c3ccccc23)c1O [Compound 75]
80: Plant response rating, Panicum, Fall [4, 22] | Plant response rating, Arrowleaf Sida [7, 21] | Plant response rating, Arrowleaf Sida [7, 28] | Plant response rating, Field Bindweed [11, 21] | Plant response rating, Waterhemp [13, 24]
98: Plant response rating, Arrowleaf Sida [7, 29] | Plant response rating, Velvetleaf [9, 27] | Plant response rating, Field Bindweed [11, 29]
65: Plant response rating, Nutsedge, Yellow [3, 27]
30: Plant response rating, Morningglory [1, 15]
5: Plant response rating, Surinam Grass [2, 18] | Plant response rating, Field Bindweed [11, 20] | Plant response rating, Foxtail, Giant [12, 15]
75: Plant response rating, Arrowleaf Sida [7, 20] | Plant response rating, Foxtail, Giant [12, 27]
60: Plant response rating, Morningglory [1, 16] | Plant response rating, Surinam Grass [2, 16] | Plant response rating, Panicum, Fall [4, 28] | Plant response rating, Waterhemp [13, 20]
85: Plant response rating, Velvetleaf [9, 15] | Plant response rating, Field Bindweed [11, 28] | Plant response rating, Field Bindweed [11, 24]
90: Plant response rating, Surinam Grass [2, 27] | Plant response rating, Panicum, Fall [4, 29] | Plant response rating, Arrowleaf Sida [7, 22] | Plant response rating, Nightshade [8, 16] | Plant response rating, Foxtail, Green [10, 27] | Plant response rating, Field Bindweed [11, 19] | Plant response rating, Waterhemp [13, 19] | Plant response rating, Waterhemp [13, 21]
0: Plant response rating, Morningglory [1, 18] | Plant response rating, Nutsedge, Yellow [3, 18] | Plant response rating, Corn [5, 19] | Plant response rating, Corn [5, 20] | Plant response rating, Corn [5, 21] | Plant response rating, Corn [5, 22] | Plant response rating, Corn [5, 28] | Plant response rating, Corn [5, 24] | Plant response rating, Corn [5, 26] | Plant response rating, Johnsongrass [6, 15] | Plant response rating, Johnsongrass [6, 18] | Plant response rating, Nightshade [8, 15] | Plant response rating, Nightshade [8, 18] | Plant response rating, Foxtail, Green [10, 15] | Plant response rating, Foxtail, Green [10, 16] | Plant response rating, Foxtail, Green [10, 18] | Plant response rating, Field Bindweed [11, 26] | Plant response rating, Foxtail, Giant [12, 18]
40: Plant response rating, Panicum, Fall [4, 19]
95: Plant response rating, Waterhemp [13, 28]
15: Plant response rating, Johnsongrass [6, 27]
100: Plant response rating, Morningglory [1, 27] | Plant response rating, Nightshade [8, 27] | Plant response rating, Velvetleaf [9, 16] | Plant response rating, Field Bindweed [11, 22] | Plant response rating, Waterhemp [13, 22] | Plant response rating, Waterhemp [13, 29] | Plant response rating, Lambsquarters [14, 15] | Plant response rating, Lambsquarters [14, 16] | Plant response rating, Lambsquarters [14, 18] | Plant response rating, Lambsquarters [14, 27]
35: Plant response rating, Surinam Grass [2, 15] | Plant response rating, Corn [5, 29] | Plant response rating, Velvetleaf [9, 18] | Plant response rating, Foxtail, Giant [12, 16]
10: Plant response rating, Nutsedge, Yellow [3, 15] | Plant response rating, Panicum, Fall [4, 26] | Plant response rating, Johnsongrass [6, 16]
50: Plant response rating, Panicum, Fall [4, 20] | Plant response rating, Panicum, Fall [4, 21] | Plant response rating, Panicum, Fall [4, 24] | Plant response rating, Arrowleaf Sida [7, 26] | Plant response rating, Waterhemp [13, 26]
70: Plant response rating, Nutsedge, Yellow [3, 16] | Plant response rating, Arrowleaf Sida [7, 19] | Plant response rating, Arrowleaf Sida [7, 24]
